Experimental data from patent US20100298141A1, “SUBSTITUTED PYRIDINE N-OXIDE HERBICIDES” (E. I. DU PONT DE NEMOURS AND COMPANY, priority 2007, published 2010).

What was measured:
green foxtail = test: Test F preemergence test; assay type: in vivo, Setaria viridis; conditions: scale 0 to 100
In short: (§1)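 Test chemicals were formulated in a non-phytotoxic solvent mixture with surfactant and applied preemergence to planted seeds or postemergence to sugarcane plants. Plants were kept in a greenhouse for 14 to 21 days, then visually evaluated against controls.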

kochia = test: Test F preemergence test; assay type: in vivo, Kochia scoparia; conditions: scale 0 to 100
In short: as §1

quackgrass = test: Test F preemergence test; assay type: in vivo, Elytrigia repens; conditions: scale 0 to 100
In short: as §1

common mallow = test: Test F preemergence test; assay type: in vivo, Malva sylvestris; conditions: scale 0 to 100
In short: as §1

annual bluegrass = test: Test F preemergence test; assay type: in vivo, Poa annua; conditions: scale 0 to 100
In short: as §1

umbrella sedge = test: Test C flooded paddy test; assay type: in vivo, Cyperus difformis; conditions: Flood
In short: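 Test compounds are applied straight into paddy water held 3 cm above the soil surface, with that flood maintained for the whole test. After 13 to 15 days in the greenhouse, each species is scored visually relative to controls.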

common groundsel = test: Test F preemergence test; assay type: in vivo, Senecio vulgaris; conditions: scale 0 to 100
In short: as §1

Goosegrass = test: Test C pre-/postemergence test; assay type: in vivo, Eleusin indica
In short: (§2)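 Compounds in a non-phytotoxic solvent with surfactant applied preemergence to seeded pots and, at the same time, postemergence to plants 2–18 cm tall (1- to 4-leaf stage). Paddy tests: pots flooded to 3 cm, compound applied into the water, depth held throughout.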

mustard = test: Test F preemergence test; assay type: in vivo, Brassica nigra; conditions: scale 0 to 100
In short: as §1

crabgrass = test: Test C pre-/postemergence test; assay type: in vivo, Digitaria sanguinalis
In short: as §2

wheat = test: Test A pre-/postemergence greenhouse test; assay type: in vivo, Triticum aestivum; conditions: for Wheat plant response rating: 0 to 100 scale
In short: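 Two application timings were run side by side in the greenhouse. Before emergence, compound went onto the soil surface of loam–sand pots as a directed spray; after emergence, plants at 2–10 cm and the one- to two-leaf stage were treated. Visual injury versus controls was rated at approximately day ten.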

dallisgrass = test: Test F preemergence test; assay type: in vivo, Paspalum dilatatum; conditions: scale 0 to 100
In short: as §1

[1] = 62 g ai/ha, Preemergence, scale 0 to 100
[2] = 125 g ai/ha, preemergence, scale 0 (no effect) to 100 (complete control)
[3] = Preemergence, 31 g ai/ha, scale 0 to 100 (0 no effect, 100 complete control)
[4] = preemergence, 250 g ai/ha, scale 0 (no effect) to 100 (complete control)

Which “Plant response rating, Foxtail, Green” value (green foxtail; 16 g ai/ha, preemergence) does the source give for `CC(Oc1c(C[S+]([O-])c2ccc(Cl)c[n+]2[O-])c(C(F)(F)F)nn1C)C(F)(F)F` (stereo not shown) [Compound 87] here?
Its value is 35.

What about the “Foxtail, Green plant response rating” value (green foxtail; 125 g ai/ha, preemergence) of the same compound?
Its value is 98.

What about the “Plant response rating, Foxtail, Green” value (green foxtail; Preemergence, 62 g ai/ha) of the same compound?
The value was 80.

What about the “Plant response rating, Foxtail, Green” value (green foxtail; Preemergence, 31 g ai/ha) of the same compound?
Its value is 65.

And the “Plant response rating, Kochia” value (kochia; 16 g ai/ha, preemergence)?
The value was 0.

And the “Kochia plant response rating” value (kochia; 125 g ai/ha, preemergence)?
The value was 50.

And the “Plant response rating, Kochia” value (kochia; Preemergence, 62 g ai/ha)?
The value was 50.

What about the “Plant response rating, Kochia” value (kochia; Preemergence, 31 g ai/ha) of the same compound?
The value was 0.

And the “Plant response rating, Quackgrass” value (quackgrass; 16 g ai/ha, preemergence)?
The value was 60.

And the “Quackgrass plant response rating” value (quackgrass; 125 g ai/ha, preemergence)?
Its value is 90.

What about the “Plant response rating, Quackgrass” value (quackgrass; Preemergence, 62 g ai/ha) of the same compound?
Its value is 80.

And the “Plant response rating, Quackgrass” value (quackgrass; Preemergence, 31 g ai/ha)?
Its value is 60.

And the “Plant response rating, Mallow” value (common mallow; 16 g ai/ha, preemergence)?
Its value is 50.

What about the “Mallow plant response rating” value (common mallow; 125 g ai/ha, preemergence) of the same compound?
Its value is 100.

And the “Plant response rating, Mallow” value (common mallow; Preemergence, 62 g ai/ha)?
Its value is 100.

What about the “Plant response rating, Mallow” value (common mallow; Preemergence, 31 g ai/ha) of the same compound?
The value was 75.

And the “Plant response rating, Bluegrass” value (annual bluegrass; 16 g ai/ha, preemergence)?
The value was 35.

What about the “Bluegrass plant response rating” value (annual bluegrass; 125 g ai/ha, preemergence) of the same compound?
Its value is 100.

And the “Plant response rating, Bluegrass” value (annual bluegrass; Preemergence, 62 g ai/ha)?
Its value is 80.

And the “Plant response rating, Bluegrass” value (annual bluegrass; Preemergence, 31 g ai/ha)?
Its value is 70.

And the “Plant response rating, Sedge, Umbrella” value (umbrella sedge; 62 g ai/ha, scale 0 to 100 (0 no effect, 100 complete control))?
The value was 60.

What about the “Plant response rating, Sedge, Umbrella” value (umbrella sedge; 250 g ai/ha, scale 0 to 100, 0 no effect, 100 complete control, 13 to 15 days) of the same compound?
The value was 95.

What about the “Plant response rating, Groundsel” value (common groundsel; 16 g ai/ha, preemergence) of the same compound?
The value was 0.

What about the “Groundsel plant response rating” value (common groundsel; 125 g ai/ha, preemergence) of the same compound?
Its value is 65.

What about the “Plant response rating, Groundsel” value (common groundsel; Preemergence, 62 g ai/ha) of the same compound?
The value was 0.

And the “Plant response rating, Groundsel” value (common groundsel; Preemergence, 31 g ai/ha)?
The value was 0.

And the “Goosegrass plant response rating” value (Goosegrass; [1])?
The value was 100.

What about the “Goosegrass plant response rating” value (Goosegrass; [2]) of the same compound?
The value was 100.

And the “Plant response rating, Goosegrass” value (Goosegrass; [3])?
The value was 98.

And the “Goosegrass plant response rating” value (Goosegrass; [4])?
Its value is 100.

And the “Plant response rating, Black Mustard” value (mustard; 16 g ai/ha, preemergence)?
Its value is 0.

And the “Black Mustard plant response rating” value (mustard; 125 g ai/ha, preemergence)?
Its value is 100.

What about the “Plant response rating, Black Mustard” value (mustard; Preemergence, 62 g ai/ha) of the same compound?
The value was 90.

And the “Plant response rating, Black Mustard” value (mustard; Preemergence, 31 g ai/ha)?
The value was 30.

And the “Crabgrass, Large plant response rating” value (crabgrass; [1])?
Its value is 95.

And the “Crabgrass, Large plant response rating” value (crabgrass; [2])?
Its value is 100.

And the “Plant response rating, Crabgrass, Large” value (crabgrass; [3])?
Its value is 80.

And the “Crabgrass, Large plant response rating” value (crabgrass; [4])?
The value was 100.

What about the “Plant response rating, Wheat” value (wheat; Postemergence, 125 g ai/ha, 0 to 100 scale where 0 is no effect and 100 is complete control) of the same compound?
The value was 60.

What about the “Wheat plant response rating” value (wheat; Postemergence, 500 g ai/ha, 0 is no effect, 100 is complete control) of the same compound?
The value was 70.

And the “Wheat plant response rating” value (wheat; Preemergence, 125 g ai/ha, 0 no effect, 100 complete control)?
Its value is 70.

And the “Wheat plant response rating” value (wheat; Preemergence, 500 g ai/ha, 0 no effect, 100 complete control)?
The value was 100.

What about the “Plant response rating, Dallisgrass” value (dallisgrass; 16 g ai/ha, preemergence) of the same compound?
Its value is 0.

What about the “Dallisgrass plant response rating” value (dallisgrass; 125 g ai/ha, preemergence) of the same compound?
The value was 80.

What about the “Plant response rating, Dallisgrass” value (dallisgrass; Preemergence, 62 g ai/ha) of the same compound?
Its value is 60.

And the “Plant response rating, Dallisgrass” value (dallisgrass; Preemergence, 31 g ai/ha)?
The value was 50.
